Here are results for 1 compound from patent publication US5646148A, “HIV protease inhibitors useful for the treatment of AIDS” (Merck & Co., Inc., priority 1995, dated 1997).

The structures appear in SMILES notation.

The target in assay [1] is T1, HIV protease (Human immunodeficiency virus type 1 group M subtype B, UniProt P04585).
T1 construct: the protease expressed in Eschericia coli; made in house; host or cells: Escherichia coli
Nature of the assay: Assay for Inhibition of Microbial Expressed HIV Protease. Type of assay: biochemical. The conditions noted are these: protease expressed in Eschericia coli; peptide substrate Val-Ser-Gln-Asn-(betanapthyl)Ala-Pro-Ile-Val; 50 mM Na acetate, pH 5.5, 30° C., 1 hour; HPLC. How it is done:
Inhibition studies of the reaction of the protease expressed in Eschericia coli with a peptide substrate [Val-Ser-Gln-Asn-(betanapthyl)Ala-Pro-Ile-Val, 0.5 mg/mL at the time the reaction is initiated] were in 50 mM Na acetate, pH 5.5, at 30° C. for 1 hour. Various concentrations of inhibitor in 1.0 μl DMSO were added to 25 μl of the peptide solution in water. The reaction is initiated by the addition of 15 μl of 0.33 nM protease (0.11 ng) in a solution of 0.133M Na acetate pH 5.5 and 0.1% bovine serum albumin. The reaction was quenched with 160 μl of 5% phosphoric acid. Products of the reaction were separated by HPLC (VYDAC wide pore 5 cm C-18 reverse phase, acetonitrile gradient, 0.1% phosphoric acid). The extent of inhibition of the reaction was determined from the peak heights of the products.

Assay [2] concerns HIV-1. Nature of the assay: Cell spread assay: inhibition of the spread of HIV in cell culture (MT-4 T-lymphoid cells, p24). In kind it is cell-based. The conditions noted are these: Human immunodeficiency virus 1, 72 h, MT-4 T-lymphoid cells infected with HIV-1 (wild-type), 24 h preincubation, then 3 additional days with inhibitor, read-out: CIC95, inhibitor concentration which reduced the spread of infection by at least 95%. The protocol:
Inhibition of the spread of HIV in cell culture was measured according to Nunberg, J. H. et al., J. Virol. 65, 4887 (1991). In this assay, MT-4 T-lymphoid cells were infected with HIV-1 (wild-type, unless otherwise indicated) by using a predetermined inoculum, and cultures were incubated for 24 h. At this time, ≤1% of the cells were positive by indirect immunofluorescence. Cells were then extensively washed and distributed into 96-well culture dishes. Serial twofold dilutions of inhibitor were added to the wells, and cultures were continued for 3 additional days. At 4 days postinfection, 100% of the cells in control cultures were infected. HIV-1 p24 accumulation was directly correlated with virus spread. The cell culture inhibitory concentration was defined as the inhibitor concentration in nanomoles/liter which reduced the spread of infection by at least 95%, or CIC95. The CIC95 for compound A is 25 nM.
INHIBITION OF VIRUS SPREAD
A. Preparation of HIV-infected MT-4 cell Suspension. […]
The concentration of HIV p24 antigen is measured by an enzyme immunoassay, described as follows. Aliquots of p24 antigen to be measured are added to microwells coated with a monoclonal antibody specific for HIV core antigen. […]

As for `CC(C)(C)NC(=O)C1CN(Cc2cnc3occc3c2)CCN1CC(O)CC(Cc1ccccc1)C(=O)NC1c2ccccc2CC1O` [Compound A, N-(2(R)-hydroxy-1(S)-indanyl)-2(R)-phenylmethyl-4(S)-hydroxy-5-(1-(4-(3-furo[2,3-b]pyridylmethyl)-2(S)-N'-(t-butylcarboxamido)-piperazinyl))pentaneamide], in assay [1], the IC50 (in general, the concentration at which inhibition is half-maximal) was about 0.27 nM. In addition, in assay [2], the IC95 was 25 nM.
